Source: patent US10131664B2 (Celgene Quanticel Research, Inc., priority 2013, dated 2018)

Assays:
[1] = system: THP-1 (AML) cells; test: LSD1 CD11b cellular assay (flow cytometry); type: cell-based; conditions: Homo sapiens, 96 h; CD11b expression in THP-1 (AML) cells, flow cytometry, 4 days incubation; read-out: Cellular IC50
Outline: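 THP-1 AML cells treated with serially diluted compound (0.2% DMSO final) for 4 days at 37 °C, 5% CO2. CD11b expression measured by flow cytometry with DAPI staining; IC50 derived from percent CD11b-positive cells versus inhibitor concentration.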

[2] = molecular target: full-length human LSD1 (Homo sapiens (Human), UniProt O60341); test: In vitro enzyme inhibition assay LSD-1 (TR-FRET); type: biochemical; conditions: TR-FRET, 0.1 nM LSD1, 50 nM H3K4me1-biotin peptide, 2 μM FAD, pH7.3; read-out: LSD1 IC50
Method: This assay determines the ability of a test compound to inhibit LSD1 demethylase activity.
The enzymatic assay of LSD1 activity is based on Time Resolved-Fluorescence Resonance Energy Transfer (TR-FRET) detection.
The ability of the compounds disclosed herein to inhibit LSD1 activity was quantified and the respective IC50 value was determined. Table 5 provides the IC50 values of various substituted heterocyclic compounds disclosed herein.

IC50 [1] | IC50 [2] | SMILES
< 100 nM | < 100 nM | CNc1nc(N2CC[C@@H](N)[C@@H](F)C2)nc(-c2ccc(C#N)cc2)c1-c1ccc2nn(C)cc2c1 [Example 177, 4-{2-[(3S,4R)-4-amino-3-fluoropiperidin-1-yl]-5-(2-methyl-2H-indazol-5-yl)-6-(methylamino)pyrimidin-4-yl}benzonitrile]
< 100 nM | < 100 nM | CNc1nc(N2CC[C@H](N)[C@H](F)C2)nc(-c2ccc(C#N)cc2)c1-c1ccc2nn(C)cc2c1 [Example 178, 4-{2-[(3R,4S)-4-amino-3-fluoropiperidin-1-yl]-5-(2-methyl-2H-indazol-5-yl)-6-(methylamino)pyrimidin-4-yl}benzonitrile]
